Laboratory results taken from patent US8685934B2, “Methods for treating extreme insulin resistance in patients resistant to previous treatment with other anti-diabetic drugs employing an SGLT2 inhibitor and compositions thereof” (Bristol-Myers Squibb Company, priority 2009, dated 2014).
Like-named read-outs stand apart in the source and are kept apart here.

Columns and labels:
[1] = system: highly insulin-resistant T2DM patients poorly controlled with insulin plus metformin and/or thiazolidinediones; details: for Patients who required up-titration of insulin: throughout the 12-week double-blind period, placebo arm 4 patients; for Patients exposed to study medication for ≧84 days prior to insulin up-titration: versus 39.1% in the placebo arm
Procedure: Criteria for management of hyperglycemia were determined by fasting plasma glucose (FPG) measurements. For any FPG level >240 mg/dL at weeks 4 and 6, >220 mg/dL at week 8, or >200 mg/dL at week 10, the patient would be scheduled for a follow-up visit in 3 to 5 days. If FPG was still above the threshold at follow-up, a visit was scheduled in order to increase the insulin dose as clinically indicated. Patients who further lacked glycemic control despite up-titration, or whose modified insulin dose exceeded baseline, were discontinued from blinded treatment and entered into follow-up.
All patients were on insulin-sensitizer therapy for at least 6 weeks prior to enrollment and insulin-based therapy for at least 12 weeks prior to enrollment. The study protocol defined insulin-sensitizer therapy as metformin (stable dose ≧1000 mg) and/or pioglitazone (stable dose ≧30 mg) or rosiglitazone (stable dose 4 mg). Insulin-based therapy was defined as subcutaneous insulin for at least 12 weeks prior to enrollment, with 2 minimum insulin daily dose equivalent to 50 units (median 85 to 93 units across all study arms) of U100 insulin per day. The insulin regimen must have been stable for at least 6 weeks. In addition to 10 mg dapagliflozin or 20 mg dapagliflozin daily or placebo, 74.6% of patients received metformin (≧1000 mg daily) plus insulin; 16.9% of patients received metformin (≧1000 mg daily) plus pioglitazone (≧30 mg daily) or rosiglitazone (4 mg daily) plus insulin and 8.5% of patients received pioglitazone (≧30 mg daily) or rosiglitazone (4 mg daily) plus insulin.
Patients in Cohort 1 were evaluated for safety only. Patients in Cohort 2 were evaluated for safety and efficacy. The primary efficacy measure was change from baseline in HbAlc, at week 12, last observation carried forward (LOCF). If no week 12 assessment was available, the last observation prior to week 12 was used. Secondary efficacy measures included changes from baseline at week 12 (LOCF) in FPG and insulin dose, the proportion of patients achieving a decrease in HbAlc>0.5% from baseline at week 12 (LOCF), and the proportion of patients achieving HbAlc<7% at week 12 (LOCF). Tertiary endpoints included changes from baseline in total body weight and in postprandial glucose (PPG) measured by an oral glucose tolerance test (OGTT).
Patients in Cohort 2 were evaluated for safety and efficacy. The primary efficacy measure was change from baseline in HbAlc at week 12, last observation carried forward (LOCF). The analysis was done excluding data after up-titration of insulin. If no week 12 assessment was available, the last observation prior to week 12 was used.
For Cohort 2, the sample size target of 22 patients per treatment group was chosen to allow for the calculation of 95% confidence intervals for the primary endpoint with a half-width of 0.42% for each treatment group. This assumed a 1% standard deviation for the primary endpoint in each of the dapagliflozin and placebo arms. With the same assumption, the half-width of a 95% confidence interval for the difference between any two treatment mean changes was estimated to be 0.59%. The primary efficacy data set consisted of all randomized patients who took at least one dose of double-blind study medication during the treatment phase. The analyses of the efficacy variables (except change from baseline in insulin dose) were done excluding data after up-titration of insulin. The analyses for changes from baseline in HbAlc, FPG, insulin dose, and total body weight at week 12 (LOCF) were performed using an analysis of covariance (ANCOVA) model with treatment group as an effect and baseline value as a covariate. Point estimates and 95% confidence intervals were calculated for mean changes within each treatment group and for differences in mean changes between the dapagliflozin and placebo groups.

[2] = system: highly insulin-resistant T2DM patients poorly controlled with insulin plus metformin and/or thiazolidinediones; details: for 24-hour urinary glucose, increase / Standing diastolic blood pressure, mean change / Standing systolic blood pressure, mean change / Serum hematocrit, median increase from baseline / Urinary glucose excretion, mean change from baseline: week 12; for Glomerular filtration rate, change compared to baseline: end of treatment; for Urinary glucose excretion, mean change from baseline: placebo −1.5
Excerpt: (§1) This was a randomized, single- and double-blind, three-arm parallel group, placebo-controlled trial to determine if dapagliflozin effectively lowers hyperglycemia in highly insulin-resistant T2DM patients poorly controlled with insulin plus metformin and/or thiazolidinediones. The trial consisted of a qualification period of 10 to 21 days, a treatment phase of 12 weeks, and a follow-up phase of 4 weeks. During qualification and until day 1, patients maintained their stable dose of open-label OADs, as well as their stable dose of prescribed insulin.
(§2) The treatment phase utilized an adaptive trial design with two cohorts: Cohort 1, the insulin dose-setting group; and Cohort 2, the main experimental group. The purpose of Cohort 1 was to determine the ideal starting dose of insulin least likely to cause hypoglycemia when dapagliflozin would be added. In Cohort 1, four patients were assigned to 20 mg single-blind dapagliflozin on day 1 after having their insulin dose decreased by 50%, the greatest decrement possible in this adaptive design. These patients underwent 48-hour continuous blood glucose monitoring (CGM) during the first week of treatment. Pursuant to the protocol, if at least one patient recorded a CGM value ≦100 mg/dL, confirmed by self-monitoring of blood glucose (SMBG), the total daily insulin dose for patients in Cohort 2 would be set at 50% of their usual dose that is, at an average of 52 to 54 units of insulin daily, and lesser dose reductions of insulin would not be tested. […] Patients in Cohort 2 were randomized on day 1 in a 1:1:1 ratio to double-blind placebo, 10 mg dapagliflozin or 20 mg dapagliflozin once daily, in addition to their open-label OAD(s) and 50% of their usual daily insulin, that is an average of 52 to 54 units of insulin daily.
(§3) Safety outcomes were assessed by treatment-emergent adverse events, vital signs, ECGs and laboratory measurements, including 24-hour urine collections for volume and electrolytes.

[3] = system: highly insulin-resistant T2DM patients poorly controlled with insulin plus metformin and/or thiazolidinediones; details: for Adverse events, % of patients: placebo 65.2%; for Patients with genital tract infections: double-blind period, placebo one; for Events of pollakiuria, patients: placebo four patients; for Patients who reported episodes of hypoglycemia: placebo three patients
Excerpt: as §1, §2
Patients were scheduled for visits at weeks 1, 2, 4, 6, 8, 10, and 12 of treatment, and performed SMBG 5 times daily during the 3 to 5 days prior to visits. No dose modifications of blinded study medication or OAD(s) were allowed during the treatment phase. Guidelines were in place throughout the trial for managing hypo- and hyperglycemia. […] Additional down-titration could be implemented as clinically indicated to manage the risk of hypoglycemia.
as §3

## CCOc1ccc(Cc2cc([C@@H]3O[C@H](CO)[C@@H](O)[C@H](O)[C@H]3O)ccc2Cl)cc1 [Dapagliflozin, (2S,3R,4R,5S,6R)-2-(4-chloro-3-(4-ethoxybenzyl)phenyl)-6-(hydroxymethyl)tetrahydro-2H-pyran-3,4,5-triol]
[1]; Dapagliflozin 20 mg + insulin + OAD, week 12 LOCF, of 23 patients, excludes data after insulin up-titration
  Patients with ↓ HbA1c ≧ 0.5%, No., response: 15
[1]; Dapagliflozin 20 mg once daily + insulin (50% of usual dose) + OAD, Cohort 2, excludes data after insulin up-titration
  HbA1c, mean (SD), End of Double-blind (Week 12 LOCF): 7.8 (0.6) %
[1]; dapagliflozin 10 mg arm (n = 24)
  Patients who required up-titration of insulin: 1 patient
[1]; dapagliflozin 10 mg arm
  Patients exposed to study medication for ≧84 days prior to insulin up-titration: 66.7%
[1]; dapagliflozin 20 mg arm (n = 24)
  Patients who required up-titration of insulin: 3 patients
[1]; dapagliflozin 20 mg arm
  Patients exposed to study medication for ≧84 days prior to insulin up-titration: 66.7%
[1]; dapagliflozin treatment (dose not distinguished), insulin dose reduced by 50%
  Additional weight loss compared to placebo: -2.5 kg
[1]; insulin-resistant patients who had their baseline insulin reduced 50%
  HbAlc, PPG and weight versus placebo, in words: decreased HbAlc, PPG and weight more than placebo
[1]; week 12 (LOCF)
  Weight lowering versus placebo, in words: more likely to lower weight than placebo
[2]; 10 mg dapagliflozin
  24-hour urinary glucose, increase: ~85 grams per day
  Standing diastolic blood pressure, mean change: −1.2 mm Hg
  Standing systolic blood pressure, mean change: −7.2 mm Hg
[2]; 20 mg dapagliflozin
  Supine diastolic blood pressure, mean change: −5.8 mm Hg
  Supine systolic blood pressure, mean change: −5.5 mm Hg
  24-hour urinary glucose, increase: ~85 grams per day
  Standing diastolic blood pressure, mean change: −3.9 mm Hg
  Standing systolic blood pressure, mean change: −6.1 mm Hg
[2]; dapagliflozin 10 mg
  Serum uric acid, median change from baseline: -0.30 mg/dL
  Glomerular filtration rate, change compared to baseline: −0.84 mL/min/1.73 m^2
  Serum hematocrit, median increase from baseline: 2.5%
  Urinary glucose excretion, mean change from baseline: 83.5 g/24 h
[2]; dapagliflozin 10 mg, increased from 1921.0 mL at baseline
  Mean 24-hour urine output on treatment: 2285.8 mL
[2]; dapagliflozin 20 mg
  Serum uric acid, median change from baseline: -0.30 mg/dL
  Glomerular filtration rate, change compared to baseline: 1.45 mL/min/1.73 m^2
  Serum hematocrit, median increase from baseline: 3.05%
  Urinary glucose excretion, mean change from baseline: 85.2 g/24 h
[2]; dapagliflozin 20 mg, increased from 1808.8 mL at baseline
  Mean 24-hour urine output on treatment: 2253.1 mL
[3]; 10 mg dapagliflozin arm
  Adverse events, % of patients: 75.0%
[3]; 10 mg dapagliflozin group
  Patients with genital tract infections: none
[3]; 10 mg dapagliflozin, patient on enalapril, carvedilol and furosemide, discontinued after eleven days, resolved with oral rehydration
  Events of pre-renal azotemia: One
[3]; 10 mg dapagliflozin
  Events of pollakiuria, patients: two
[3]; 20 mg dapagliflozin arm
  Adverse events, % of patients: 66.7%
[3]; 20 mg dapagliflozin group (n = 24)
  Patients who reported episodes of hypoglycemia: six
[3]; 20 mg dapagliflozin group
  Patients with genital tract infections: five
[3]; 20 mg dapagliflozin
  Events of pollakiuria, patients: three
[3]; dapagliflozin 10 mg arm
  Patients who reported polyuria: One
  Patients with adverse events that led to discontinuation: One
[3]; dapagliflozin 10 mg group (n = 24)
  Patients who reported episodes of hypoglycemia: seven
[3]; dapagliflozin 20 mg arm
  Cases of microalbuminuria (resulted in discontinuation from the study): One
  Patients who reported polyuria: One
  Patients with adverse events that led to discontinuation: One
[3]; dapagliflozin 20 mg group
  Patients who experienced a serious adverse event: one
  Patients who reported a urinary tract infection: One
[3]; major/minor episodes were balanced across all groups
  Total hypoglycemic events versus placebo, in words: more frequently reported with dapagliflozin treatment than with placebo
[3]; whole study
  Deaths, in words: no deaths
